Measurements: paper PMC12693701, “Glucosinolate-Derived Metabolites from Barbarea vulgaris (Brassicaceae): Evaluation of Antimicrobial, Antioxidant, and Anti-Inflammatory Potentials” (Molecules, 2025)
Converted amounts (≈) assume the structure as drawn.

Columns and labels:
[1] = system: B. animalis subsp. lactis; experiment: Microdilution MIC/MMC with resazurin; assay type: cell-based, Bifidobacterium animalis subsp. lactis; details: B. animalis subsp. lactis, compounds 1–8; for MIC: Bifidobacterium animalis, read-out: MIC
Protocol: (§1) The antimicrobial activity was evaluated against 15 microorganisms. This included 11 bacterial strains: four standard strains (Staphylococcus aureus ATCC 25923, Bacillus subtilis ATCC 6633, Bacillus pumilus NCTC 8241, and Escherichia coli ATCC 25922) and six clinical or environmental isolates (Staphylococcus aureus, Escherichia coli, Bacillus cereus, Proteus mirabilis, Salmonella enterica, and Klebsiella pneumoniae). One probiotic strain, Bifidobacterium animalis subsp. lactis was tested. In addition, four fungal strains, Candida albicans ATCC 10231, Trichoderma viride ATCC 13233, Aspergillus flavus ATCC 9170, and Fusarium solani ATCC 11712 were tested. The bacterial strains were kept in glycerol stock at −80 °C and the fungal strains in paraffin oil stock at 4 °C.
(§2) Bacterial and yeast suspensions were prepared using the direct colony method, as previously described by Andrews. The turbidity of the initial suspensions was adjusted to match the 0.5 McFarland standard using a densitometer (Biosan, Riga, Latvia), corresponding to approximately 10^8 colony-forming units (CFU)/mL for bacterial cells and 10^6 CFU/mL for yeast cells. Subsequently, 1:100 dilutions of the initial suspensions were prepared in sterile 0.85% saline. Fungal spore suspensions were obtained by gently harvesting spores from agar slopes containing mature mycelial growth. The collected spore suspensions were then diluted 1:1000 in sterile 0.85% saline prior to use.
(§3) Antimicrobial activity was evaluated by determining the minimum inhibitory concentration (MIC) and minimum microbicidal concentration (MMC) using the microdilution plate method with resazurin as an indicator [28]. In the 96-well plates, 100 μL of Mueller–Hinton broth (Torlak, Belgrade, Serbia) for bacterial testing and Sabouraud broth (Torlak, Belgrade, Serbia) for fungal testing were dispensed into each well. The compounds under investigation were initially dissolved in a 10% dimethyl sulfoxide (DMSO) solution, followed by dilution in sterile distilled water, resulting in a working compound solution containing 1% DMSO. A 100 μL aliquot of the stock solution of the tested compound was added to the first row, and twofold serial dilutions were then carried out using a multichannel pipette. The resulting concentration range was from 5 to 0.039 mg/mL. The inoculated microtiter plates were incubated at 37 °C for 24 h for bacteria, at 28 °C for 48 h for yeasts, and at 28 °C for 72 h for molds.
(§4) Each test also included growth control and sterility control. All tests were conducted in duplicate. MIC was defined as the lowest concentration of tested compounds that prevented resazurin color change from blue to pink. For molds, MIC values of the tested compound were determined as the lowest concentration that inhibited visible mycelia growth. MMC was determined by inoculation of the nutrient agar medium by plating […] of samples from wells, where no indicator color change was recorded. At the end of the incubation period, the lowest concentration with no growth (no colony) was defined as MMC.
(§5) Doxycycline, ampicillin and amphotericin B (- Sigma-Aldrich, St. Louis, MO, USA) and ketoconazole (Hemofarm A.D., Vršac, Serbia) were dissolved in a nutrient liquid medium. Doxycycline is a broad-spectrum antibiotic effective against both aerobic and anaerobic Gram-positive and Gram-negative bacteria. Ampicillin, a beta-lactam antibiotic, primarily targets Gram-positive bacteria but also some Gram-negative strains. Amphotericin B is an antifungal drug often used for serious systemic fungal infections and is one of the effective treatments for fungal infections caused by Aspergillus sp. Ketoconazole is an antifungal agent used to inhibit the growth of Candida species.

[2] = DPPH radical scavenging assay; details: mean ± SD
Protocol: The DPPH assay was used to assess the ability of the tested compounds to scavenge reactive radical species. Stock solutions of the investigated compounds were prepared in DMSO and then diluted with methanol to a final volume of 1000 µL. An equal volume of a 50 µM DPPH solution in methanol was then added to the prepared mixture. The final concentrations of the test compounds were 25, 50, and 100 µM. After thorough mixing, the samples were incubated in the dark at room temperature for 20 to 60 min. Methanol was used as a blank, and absorbance was measured at 517 nm after incubation. All measurements were performed in triplicate.

B. pumilus NCTC 8241 = experiment: Microdilution MIC/MMC with resazurin; assay type: cell-based, Bacillus pumilus; details: B. pumilus NCTC 8241, compounds 1–8; for MIC: Bacillus pumilus, NCTC8241, read-out: MIC
Protocol: as §1, §2, §3, §4, §5

A. flavus ATCC 9170 = experiment: Microdilution MIC/MMC; assay type: cell-based, Aspergillus flavus; details: A. flavus ATCC 9170, compounds 1–8; for MIC: Aspergillus flavus, ATCC9170, read-out: MIC
Protocol: as §1, §2, §3, §4, §5

S. aureus = experiment: Microdilution MIC/MMC with resazurin; assay type: cell-based, Staphylococcus aureus; details: S. aureus isolate, compounds 1–8; for MIC: Staphylococcus aureus, read-out: MIC
Protocol: as §1, §2, §3, §4, §5

S. aureus ATCC 25923 = experiment: Microdilution MIC/MMC with resazurin; assay type: cell-based, Staphylococcus aureus; details: S. aureus ATCC 25923, compounds 1–8; for MIC: Staphylococcus aureus, ATCC25923, read-out: MIC
Protocol: as §1, §2, §3, §4, §5

P. mirabilis = experiment: Microdilution MIC/MMC with resazurin; assay type: cell-based, Proteus mirabilis; details: P. mirabilis, compounds 1–8; for MIC: Proteus mirabilis, read-out: MIC
Protocol: as §1, §2, §3, §4, §5

S. enterica = experiment: Microdilution MIC/MMC with resazurin; assay type: cell-based, Salmonella enterica; details: compounds 1–8; for MIC: Salmonella enterica
Protocol: as §1, §2, §3, §4, §5

T. viride ATCC 13233 = experiment: Microdilution MIC/MMC; assay type: cell-based, Trichoderma viride; details: T. viride ATCC 13233, compounds 1–8; for MIC: Trichoderma viride, ATCC13233, read-out: MIC
Protocol: as §1, §2, §3, §4, §5

B. cereus = experiment: Microdilution MIC/MMC with resazurin; assay type: cell-based, Bacillus cereus; details: B. cereus, compounds 1–8; for MIC: Bacillus cereus, read-out: MIC
Protocol: as §1, §2, §3, §4, §5

Row | SMILES | MMC [1] | MIC [1] | DPPH Scavenging Ability ([2]; 25 µM, 20 min) | DPPH Scavenging Ability ([2]; 25 µM, 60 min) | DPPH Scavenging Ability ([2]; 50 µM, 20 min) | DPPH Scavenging Ability ([2]; 50 µM, 60 min) | DPPH Scavenging Ability ([2]; 100 µM, 20 min) | DPPH Scavenging Ability ([2]; 100 µM, 60 min) | MMC (B. pumilus NCTC 8241) | MIC (B. pumilus NCTC 8241) | MMC (A. flavus ATCC 9170) | MIC (A. flavus ATCC 9170) | MMC (S. aureus) | MIC (S. aureus) | MMC (S. aureus ATCC 25923) | MIC (S. aureus ATCC 25923) | MMC (P. mirabilis) | MIC (P. mirabilis) | MIC (S. enterica) | MMC (T. viride ATCC 13233) | further results
1 | S=C1NCC(c2ccccc2)O1 (racemic) [Compound 4, rac-5-Phenyl-1,3-oxazolidine-2-thione] | 5 mg/mL | 1250 µg/mL (≈ 6.97 mM) | 1.2 ± 0.7% | 1.3 ± 0.5% | 1.7 ± 0.8% | 2.0 ± 0.9% | 3.8 ± 1.2% | 3.5 ± 1.7% | 2.5 mg/mL | 1250 µg/mL (≈ 6.97 mM) | >5 mg/mL | > 5000 µg/mL | 1.25 mg/mL | 1250 µg/mL (≈ 6.97 mM) | 2.5 mg/mL | 1250 µg/mL (≈ 6.97 mM) | 5 mg/mL | 2500 µg/mL (≈ 13.9 mM) | 2500 µg/mL (≈ 13.9 mM) | 2.5 mg/mL | MMC (S. enterica): 5 mg/mL; MIC (T. viride ATCC 13233): 2500 µg/mL (≈ 13.9 mM); MMC (B. cereus): 5 mg/mL; MIC (B. cereus): 5000 µg/mL (≈ 27.9 mM)
2 | CSC(=S)NCCc1ccccc1 [Compound 1, Methyl phenethylcarbamodithioate] | 2.5 mg/mL | 1250 µg/mL (≈ 5.91 mM) | 1.6 ± 1.2% | 1.8 ± 1.5% | 2.5 ± 1.1% | 2.4 ± 1.4% | 2.6 ± 1.2% | 2.9 ± 1.7% | 2.5 mg/mL | 1250 µg/mL (≈ 5.91 mM) | 2.5 mg/mL | 1250 µg/mL (≈ 5.91 mM) | 5 mg/mL | 5000 µg/mL (≈ 23.7 mM) | 5 mg/mL | 5000 µg/mL (≈ 23.7 mM) | 5 mg/mL | 5000 µg/mL (≈ 23.7 mM) | 5000 µg/mL (≈ 23.7 mM) | 1.25 mg/mL | MMC (S. enterica): 5 mg/mL; MIC (T. viride ATCC 13233): 625 µg/mL (≈ 2.96 mM); MMC (B. cereus): 5 mg/mL; MIC (B. cereus): 5000 µg/mL (≈ 23.7 mM)
3 | CSC(=S)NCCc1ccc(O)cc1 [Compound 2, methyl-4-hydroxyphenylethyl dithiocarbamate] | 0.625 mg/mL | 78 µg/mL (≈ 0.343 mM) | 11.9 ± 0.7% | 12.0 ± 0.4% | 15.6 ± 0.3% | 15.7 ± 1.4% | 24.9 ± 1.1% | 25.2 ± 1.6% | 0.156 mg/mL | 156 µg/mL (≈ 0.686 mM) | 0.625 mg/mL | 312 µg/mL (≈ 1.37 mM) | 0.312 mg/mL | 312 µg/mL (≈ 1.37 mM) | 0.156 mg/mL | 156 µg/mL (≈ 0.686 mM) | 0.312 mg/mL | 156 µg/mL (≈ 0.686 mM) | 625 µg/mL (≈ 2.75 mM) | 0.312 mg/mL | MIC (T. viride ATCC 13233): 156 µg/mL (≈ 0.686 mM); MMC (B. cereus): 0.625 mg/mL; MIC (B. cereus): 156 µg/mL (≈ 0.686 mM)
4 | O=C(O)C1CSC(=S)N1 (centres unmarked) [Compound 3, 2-Thioxothiazolidine-4-carboxylic Acid] | 2.5 mg/mL | 625 µg/mL (≈ 3.83 mM) | 1.0 ± 0.3% | 1.1 ± 0.5% | 1.9 ± 0.8% | 2.1 ± 1.1% | 7.8 ± 1.8% | 7.9 ± 1.7% | 0.625 mg/mL | 625 µg/mL (≈ 3.83 mM) | 5 mg/mL | 5000 µg/mL (≈ 30.6 mM) | 0.312 mg/mL | 156 µg/mL (≈ 0.956 mM) | 0.625 mg/mL | 625 µg/mL (≈ 3.83 mM) | 2.5 mg/mL | 2500 µg/mL (≈ 15.3 mM) | 2500 µg/mL (≈ 15.3 mM) | 5 mg/mL | MMC (S. enterica): 2.5 mg/mL; MIC (T. viride ATCC 13233): 2500 µg/mL (≈ 15.3 mM); MMC (B. cereus): 2.5 mg/mL; MIC (B. cereus): 2500 µg/mL (≈ 15.3 mM)
